Reference: ChEMBL document CHEMBL2375224, “Discovery of aryl-biphenyl-2-ylmethylpiperazines as novel scaffolds for 5-HT(7) ligands and role of the aromatic substituents in binding to the target receptor” (Bioorg Med Chem, 2013)

Molecular target: 5-hydroxytryptamine receptor 7 (Homo sapiens, UniProt P34969)
Test: Displacement of [3H]-LSD from 5HT7 receptor (unknown origin) expressed in CHOK1 cells
Format: cell-based, CHO-K1

Chain of 5-hydroxytryptamine receptor 7 (P34969 whole entry): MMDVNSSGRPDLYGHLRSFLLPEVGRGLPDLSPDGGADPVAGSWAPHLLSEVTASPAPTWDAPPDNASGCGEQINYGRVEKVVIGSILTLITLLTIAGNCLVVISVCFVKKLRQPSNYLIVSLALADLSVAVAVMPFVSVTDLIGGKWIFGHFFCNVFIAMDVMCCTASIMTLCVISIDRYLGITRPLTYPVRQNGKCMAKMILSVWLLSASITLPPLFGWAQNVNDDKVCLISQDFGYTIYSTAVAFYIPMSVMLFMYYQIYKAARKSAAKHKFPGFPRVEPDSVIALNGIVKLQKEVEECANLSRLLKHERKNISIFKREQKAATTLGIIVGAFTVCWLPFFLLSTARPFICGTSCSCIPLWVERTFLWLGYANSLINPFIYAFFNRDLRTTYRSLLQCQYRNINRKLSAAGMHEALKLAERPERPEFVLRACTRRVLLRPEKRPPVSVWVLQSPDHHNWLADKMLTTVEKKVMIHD

Row | Structure (SMILES) | Ki
1 | COc1ccccc1N1CCN(Cc2ccccc2-c2ccccc2C)CC1 | 0.311 µM
2 | FC(F)(F)c1cccc(N2CCN(Cc3ccccc3-c3ccccc3)CC2)c1 | 1.66 µM
3 | COc1ccccc1N1CCN(Cc2ccccc2-c2ccc(Cl)cc2)CC1 | 0.22 µM
4 | COc1ccccc1N1CCN(Cc2ccccc2-c2cccc(Cl)c2)CC1 | 0.219 µM
5 | COc1cccc(-c2ccccc2CN2CCN(c3ccccc3OC)CC2)c1 | 0.077 µM
6 | COc1ccccc1N1CCN(Cc2ccccc2-c2ccccc2Cl)CC1 | 0.297 µM
7 | Clc1ccc(N2CCN(Cc3ccccc3-c3ccccc3)CC2)cc1 | > 10 µM
8 | COc1ccc(-c2ccccc2CN2CCN(c3ccccc3OC)CC2)cc1 | 0.046 µM
9 | COc1ccc(N2CCN(Cc3ccccc3-c3ccccc3)CC2)cc1 | > 10 µM
10 | COc1ccccc1N1CCN(Cc2ccccc2-c2ccccc2F)CC1 | 0.658 µM
11 | COc1ccccc1-c1ccccc1CN1CCN(c2ccccc2OC)CC1 | 0.043 µM

Next, values leading:

Row | Ki | Structure (SMILES)
12 | > 10 µM | Cc1cccc(N2CCN(Cc3ccccc3-c3ccccc3)CC2)c1C
13 | > 10 µM | Cc1ccc(N2CCN(Cc3ccccc3-c3ccccc3)CC2)c(C)c1
14 | > 10 µM | Fc1cccc(N2CCN(Cc3ccccc3-c3ccccc3)CC2)c1
15 | 1.85 µM | COc1ccc(N2CCN(Cc3ccccc3-c3ccccc3)CC2)cc1OC
16 | > 10 µM | Cc1ccc(C)c(N2CCN(Cc3ccccc3-c3ccccc3)CC2)c1
17 | > 10 µM | Fc1ccccc1N1CCN(Cc2ccccc2-c2ccccc2)CC1
18 | > 10 µM | Clc1ccccc1N1CCN(Cc2ccccc2-c2ccccc2)CC1
19 | 1.2 µM | Cc1cccc(N2CCN(Cc3ccccc3-c3ccccc3)CC2)c1
20 | 1.75 µM | Cc1ccccc1N1CCN(Cc2ccccc2-c2ccccc2)CC1
21 | > 10 µM | Cc1cc(C)cc(N2CCN(Cc3ccccc3-c3ccccc3)CC2)c1
22 | > 10 µM | COc1cccc(N2CCN(Cc3ccccc3-c3ccccc3)CC2)c1
23 | > 10 µM | Fc1ccc(N2CCN(Cc3ccccc3-c3ccccc3)CC2)cc1
24 | 2.76 µM | Cc1ccc(N2CCN(Cc3ccccc3-c3ccccc3)CC2)cc1
